Here are results for three molecules from patent US8563743B2, “Benzofuranone compound and pharmaceutical composition containing same” (Fuso Pharmaceutical Industries, Ltd., priority 2010, dated 2013).

For series [1], the system named is human pancreatic cancer cell (MIA PaCa-2). Briefly: cells. To be noted: for TGI MIA PaCa-2: 72 hours culture with compound, maximum concentration 10 μM; for GI50: read-out: GI50 MIA PaCa-2; for proliferation rate: MIA PaCa-2, at a concentration of 10 μM. The protocol: (§1) As positive control substances, 5-fluorouracil (5-FU, Sigma) and gemcitabine hydrochloride (Gemzar, GEM, Eli Lilly Japan K.K.), were tested. The experiment was carried out in accordance with the method carried out by the Commission of Screening for Carcinostatic Agents of the Ministry of Education, Culture, Sports, Science and Technology. With respect to each of experiment groups, the experiment was repeated nine times and an average value was determined. Specifically, each type of cultured cells were seeded into a 96-well microplate at a density of 1×10^4 cells per well (5.0×10^4 cells/mL, 200 μL), the cells were cultured under 5% CO2 at 37° C. for 24 hours, the culture medium was replaced by a culture medium containing the compound (180 μL, the maximum dose of each of the compound was 10 μM, and the final concentration of dimethylsulfoxide (DMSO, Sigma) was adjusted to 0.25%), and the culture was further continued under the same conditions for 72 hours. In this experiment, Dulbecco's modified Eagle's medium (D-MEM, Wako Pure Chemical Industries, Ltd.) was used for the culture of MIA PaCa-2, and Eagle's minimal essential medium (E-MEM, Wako Pure Chemical Industries, Ltd.) was used for the culture of MCF-7.
(§2) After the completion of the culture, alamar blue (20 μL) (Iwaki Glass Co., Ltd.) was added to the culture medium, the resultant mixture was agitated, the culture was then carried out for 3 hours, and fluorescence values were determined on a fluorescence plate reader (Spectra Max M5 (Nihon Molecular Devices Corporation)) at an excitation wavelength of 530 nm and a fluorescence wavelength of 590 nm.
(§3) The fluorescence values immediately before the action of each of the compounds were determined by replacing the culture medium, adding alamar blue (20 μL) immediately after the replacement of the culture medium, agitating the resultant mixture, carrying out the culture for 3 hours, and measuring the fluorescence values on a fluorescence plate reader.
(§4) On the basis of the measurement values thus obtained, Tz (the state of the cultured cells immediately before the action of the compound), GI50 (the concentration of the compound required for inhibiting the proliferation of the cultured cells by 50% relative to the proliferation of the cultured cells in the presence of […]), TGI (the concentration of the compound required for inhibiting the proliferation of the cells in such a manner that the number of the cells became the same as Tz), LC50 (the concentration of the compound required for decreasing the number of the cells to 50% of Tz) and the proliferation rate (the rate of the proliferation of the cultured cells from the time pint of the action of the compound until the time point of the measurement of fluorescence) were determined.
(§5) Due to the problem of the solubility of each of the compounds, the maximum concentration was set at 10 μM.

In series [2] the test system is human breast cancer cell (MCF-7). Briefly: cells. The following applies: for TGI MCF-7: 72 hours culture with compound, maximum concentration 10 μM; for GI50 / CC50: Homo sapiens, MCF7, 72 h; for GI50: read-out: GI50 MCF-7; for CC50: read-out: LC50 MCF-7. The protocol:
as §1, §2, §3, §4, §5

Structures are written as SMILES. Counter-ions that a name gives are not always drawn.

With `O=c1[nH]cc(F)c(=O)[nH]1` [5-FU, 5-fluorouracil], in series [1], the “cytotoxic or cell proliferation inhibition activity” value is given as “did not exhibit either of these activities” and the “TGI MIA PaCa-2” value is greater than 10 µM. Besides, the GI50 in series [1] (Homo sapiens, MIA PaCa-2, 72 h) is greater than 10 µM. In addition, in series [2], the “cytotoxic or cell proliferation inhibition activity” value is reported as “did not exhibit either of these activities”, the “TGI MCF-7” value was greater than 10 µM, the GI50 is greater than 10 µM and the CC50 is greater than 10 µM.

For `Nc1ccn([C@@H]2O[C@H](CO)[C@@H](O)C2(F)F)c(=O)n1` [GEM, gemcitabine hydrochloride], in series [1], the “cytotoxic or cell proliferation inhibition activity” value is on record as “exhibited a cytotoxic or cell proliferation inhibition activity”, the “TGI MIA PaCa-2” value was greater than 10 µM and the proliferation rate is 26.47%. The GI50 in series [1] (Homo sapiens, MIA PaCa-2, 72 h) is 0.035 µM. Besides, the “concentration from which no increase in the activity was observed” value in series [1] (MIA PaCa-2) is no less than 0.05 µM. In addition, in series [2], the “cytotoxic or cell proliferation inhibition activity” value is given as “did not exhibit either of these activities”, the “TGI MCF-7” value was greater than 10 µM, the GI50 was greater than 10 µM and the CC50 was greater than 10 µM. The “concentration from which no increase in the activity was observed” value in series [2] (MCF-7) is no less than 0.05 µM. In addition, the proliferation rate in series [2] (MCF-7, at a concentration of 10 ηM) was determined as 59.52%.

As to `COCCNS(=O)(=O)c1ccc(OC)c2oc(-c3csc(NC(=O)CCl)n3)cc12` [MU-1497, 2-chloro-N-{4-[7-methoxy-4-(2-methoxyethylsulfamoyl)-benzofuran-2-yl]-thiazol-2-yl}-acetamide], in series [1], the “concentration at which a cytotoxic or cell proliferation inhibition activity was exhibited” value was no less than 2.5 µM, the “TGI MIA PaCa-2” value was determined as 6.15 µM and the proliferation rate is −95.39%. Besides, the GI50 in series [1] (Homo sapiens, MIA PaCa-2, 72 h) worked out at 4.22 µM. Further, the CC50 in series [1] (Homo sapiens, MIA PaCa-2, 72 h, read-out: LC50 MIA PaCa-2) was 8.07 µM. For the same molecule, in series [2], the “concentration at which a cytotoxic or cell proliferation inhibition activity was exhibited” value was no less than 5.0 µM, the “TGI MCF-7” value was 4.70 µM, the GI50 was 3.82 µM and the CC50 turned out to be 5.81 µM. Also, the proliferation rate in series [2] (MCF-7, at a concentration of 10 μM (the maximum dose)) is listed as −99.71%.

What is called GI50 is the concentration that inhibits growth by half.
